Results as given in publication PMC10127588 (mBio, 2023).
Entries after “also recorded” stand apart in the source; their conditions may differ. Read-outs that look alike come from different tables or passages of the source.

What was measured:
Mps1 [1] = target: T1, Mps1 (Pyricularia oryzae, UniProt G4N374); assay: biochemical; format: binding, Magnaporthe oryzae
Itk = details: read-out: affinity; cited from earlier work
Src = details: read-out: affinity; cited from earlier work
M. oryzae conidia [2] = details: cited from earlier work
Mps1 [3] = target: T1, Mps1; format: biochemical, Magnaporthe oryzae
Mpk1 [4] = target: T2, Mpk1 (Fusarium oxysporum, UniProt X0BN28); assay: biochemical; format: binding
Mpk1 [5] = target: T2, Mpk1; format: biochemical
Pmk1 = Pmk1 (Pyricularia oryzae, UniProt G4N0Z0); format: binding, Magnaporthe oryzae
Chain of Pmk1 (G4N0Z0 whole entry, looked up): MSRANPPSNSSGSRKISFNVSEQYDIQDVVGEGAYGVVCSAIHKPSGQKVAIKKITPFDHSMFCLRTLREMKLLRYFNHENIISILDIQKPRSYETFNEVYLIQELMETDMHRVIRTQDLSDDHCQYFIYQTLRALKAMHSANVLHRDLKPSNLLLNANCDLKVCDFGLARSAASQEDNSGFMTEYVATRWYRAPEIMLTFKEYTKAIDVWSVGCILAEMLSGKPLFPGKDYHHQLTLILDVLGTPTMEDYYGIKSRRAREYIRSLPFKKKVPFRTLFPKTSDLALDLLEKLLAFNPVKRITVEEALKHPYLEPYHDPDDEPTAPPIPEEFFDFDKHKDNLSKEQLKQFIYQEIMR

M. oryzae conidia [6] = format: cell-based, Magnaporthe oryzae
M. oryzae conidia [7] = format: cell-based, Magnaporthe oryzae; remark: listed apart in the source
M. oryzae [8] = test system: M. oryzae; parameters: species or system Magnaporthe oryzae; details: in vivo
M. oryzae [9] = test system: M. oryzae; parameters: species or system Magnaporthe oryzae; details: in vivo; remark: listed apart in the source
M. oryzae [10] = format: cell-based
M. oryzae [11] = format: cell-based; remark: listed apart in the source
M. oryzae [12] = format: cell-based; remark: listed apart in the source

T1 sequence (G4N374 whole entry, looked up): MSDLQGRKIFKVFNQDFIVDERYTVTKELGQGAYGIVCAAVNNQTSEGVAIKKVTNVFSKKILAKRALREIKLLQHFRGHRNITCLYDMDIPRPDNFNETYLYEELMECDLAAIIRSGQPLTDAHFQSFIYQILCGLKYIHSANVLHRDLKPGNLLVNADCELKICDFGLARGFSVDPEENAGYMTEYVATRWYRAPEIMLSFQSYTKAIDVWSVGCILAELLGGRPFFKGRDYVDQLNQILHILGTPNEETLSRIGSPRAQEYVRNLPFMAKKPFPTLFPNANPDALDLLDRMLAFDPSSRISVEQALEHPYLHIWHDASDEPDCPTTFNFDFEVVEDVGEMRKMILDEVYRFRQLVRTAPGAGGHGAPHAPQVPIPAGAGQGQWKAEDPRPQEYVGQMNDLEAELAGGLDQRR

Compound: adenylyl imidodiphosphate [AMP-PNP]
- binding to Mps1 (Mps1 [1]): does not interact with Mps1; also recorded: no binding was detected
- Kd (Mps1 [1]; read-out: KD): < 500 µM
- Kd (Itk): 7900 µM
- Kd (Src): 2540 µM

Compound: CC(C)OC(=O)C(C(=O)OC(C)C)=C1SCCS1 [Isoprothiolane, diisopropyl 2-(1,3-dithiolan-2-ylidene)malonate]
- concentration that can inhibit appressorium penetration (M. oryzae conidia [2]): 20 µg/mL

Compound: CNC(=O)[C@H](Cc1c[nH]c2ccccc12)NC(=O)c1ccc2cncc(-c3cc(OC(F)(F)F)ccc3OC)c2n1 [A378-0]
- Kd (Mps1 [1]): 69.2 µM
- kinase activity of Mps1 (Mps1 [3]): suppressed the kinase activity of Mps1
- Kd (Mpk1 [4]): 70.3 µM
- kinase activity of Mpk1 (Mpk1 [5]): can inhibit the kinase activity of Mpk1
- binding to Pmk1 (Pmk1): nonspecific binding
- germination and appressorium formation of conidia (M. oryzae conidia [6]): could not inhibit the germination and appressorium formation
- appressorium penetration (penetration peg formation) (M. oryzae conidia [7]): did not form a penetration peg
- concentration at which conidia were completely nonpathogenic (M. oryzae [8]): 150 µg/mL
- concentration from which inhibition of M. oryzae virulence is observed (M. oryzae [8]): 50 µg/mL
- virulence on barley leaves (M. oryzae [9]): exhibits inhibition of M. oryzae virulence on barley leaves
- conidiation reduced to (M. oryzae [10]): about 40%
- autolysis on the culture dish (M. oryzae [11]): progressive autolysis was observed
- sensitivity to lysing enzyme (cell wall integrity) (M. oryzae [12]): readily reduced to spheroplasts
